Experiments:
[1] = system: scopolamine-induced memory deficit rat model; experiment: Passive avoidance test in scopolamine-induced memory deficit model; format: in vivo; conditions: 24 hrs after shock
Description: (§1) Ethology test such as passive avoidance test and radial maze test were performed for Artemisia apiaceae. In the case of passive avoidance test, the control group, the scopolamine-treated group (3 mg/kg, i.p.), the tacrine-treated group after scopolamine treatment (10 mg/kg p.o.) and the Artemisia apiaceae extract-treated group were shocked. After 24 hrs, entering time to dark chamber (step-through latency, STL) was measured. […] Furthermore, in order to verify enhancement in more specific learning ability, acquisition test in which an error frequency is measured was performed using 8-arm radial maze.

scopolamine-treated rat = experiment: 8-arm radial maze acquisition test in scopolamine-treated animals; format: in vivo
Description: as §1

| SMILES | entering time into the dark chamber (step-through latency, STL) ([1]; tacrine 10 mg/kg p.o. after scopolamine treatment) | error frequency compared with the scopolamine-treated group (scopolamine-treated rat) | error frequency (scopolamine-treated rat; normal group 1.6, negative control group 3.25) | entering time into the dark chamber (step-through latency, STL) ([1]; scopolamine 3 mg/kg i.p., compared with the control group) |
| --- | --- | --- | --- | --- |
| Nc1c2c(nc3ccccc13)CCCC2 [tacrine] | significantly increased entering time into the dark chamber | significantly decreased error frequency | 1.75 | – |
| CN1[C@@H]2C[C@@H](OC(=O)[C@H](CO)c3ccccc3)C[C@H]1[C@@H]1O[C@@H]12 [scopolamine] | – | – | – | significantly decreased entering time into the dark chamber |

From patent US20130171278A1 (priority 2010, published 2013)
